Data published in patent US8426447B2, “Spiro-tricyclic ring compounds as beta-secretase modulators and methods of use” (Amgen Inc., priority 2008, dated 2013).

Tests used:
[1] = biological target: T1, BACE1 (Homo sapiens, UniProt P56817); assay: In Vitro Enzymatic BACE FRET (Fluorescence Resonance Energy Transfer) Assay; assay type: biochemical
Summary of the method: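 Fluorescence read-out after Tris addition raises pH to neutrality and ends the reaction. Before that, a peptide substrate carrying fluorophore and quencher across the BACE cleavage site (50 nM) is incubated with enzyme for one hour at pH 4.2 in acetate containing 10% DMSO and sub-micellar genapol.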

[2] = biological target: T1, BACE1; assay: In Vitro BACE Cell-based Assay (HEK cell assay): Aβ40 in conditioned medium of cells stably expressing Amyloid Precursor Protein, sandwich ELISA
Summary of the method: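 HEK cells stably expressing APP were treated 24 h with compound in 10-point dose response starting at 100 or 10 μM (0.1% DMSO). Secreted Aβ40 quantified by sandwich ELISA (pAb40 capture, biotinylated 6E10 detection, europium time-resolved fluorescence), with IC50 derived from percent inhibition versus concentration.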

[3] = in vitro BACE FRET enzyme assay, IC50 class symbols, read-out: BACE1 FRET assay
[4] = HEK cell-based assay, Aβ40 in conditioned medium, IC50 class symbols, read-out: HEK cell assay
[5] = Table IV, class symbols, read-out: BACE1 FRET assay
[6] = Table IV, class symbols, read-out: HEK cell assay
[7] = HEK cells, read-out: HEK cell assay
[8] = Table III, IC50's in uM ranges, read-out: BACE1 FRET assay
[9] = Table III, IC50's in uM ranges, read-out: HEK cell assay
[10] = Table II, read-out: BACE1 FRET assay
[11] = Table II, Aβ40, 24 h incubation, read-out: HEK cell assay

T1 sequence (P56817 46-501, species assumed): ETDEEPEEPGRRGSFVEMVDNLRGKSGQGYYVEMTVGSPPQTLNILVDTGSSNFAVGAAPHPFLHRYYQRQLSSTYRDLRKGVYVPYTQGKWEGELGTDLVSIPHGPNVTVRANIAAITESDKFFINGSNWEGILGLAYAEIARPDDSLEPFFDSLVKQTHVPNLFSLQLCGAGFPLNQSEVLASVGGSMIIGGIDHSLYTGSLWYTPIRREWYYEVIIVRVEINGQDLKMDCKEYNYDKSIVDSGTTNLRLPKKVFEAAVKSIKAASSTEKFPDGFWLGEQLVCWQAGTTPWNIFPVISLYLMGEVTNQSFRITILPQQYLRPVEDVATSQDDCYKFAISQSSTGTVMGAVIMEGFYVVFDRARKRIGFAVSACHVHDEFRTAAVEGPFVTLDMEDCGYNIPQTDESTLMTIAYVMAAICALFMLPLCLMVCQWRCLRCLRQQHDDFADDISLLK

SMILES: CC1(C)CN(c2cc3c(cn2)Oc2ccc(-c4cccnc4F)cc2[C@@]32COC(N)=N2)CCO1 [compound 489]
- IC50 ([1]; BACE1 FRET assay (uM)): < 0.1 µM
- IC50 ([2]; HEK cell assay (uM), HEK cells): < 0.1 µM

SMILES: COc1ccc2c(c1)[C@@]1(COC(N)=N1)c1cc(Br)cc(F)c1O2 [compound 406]
- IC50 [1, 3]: > 5 µM
- IC50 [2, 4]: > 5 µM

SMILES: NC1=N[C@]2(CO1)c1cc(-c3ccc(C(F)(F)F)cc3)ccc1Oc1ccc(-c3cncnc3)cc12 [compound 811]
- IC50 [1, 5]: < 0.1 µM
- IC50 [2, 6]: 0.1 to 1 µM

SMILES: CC(C)(O)C#Cc1cnc2c(c1)[C@@]1(COC(N)=N1)c1cc(C#CC3CC3)ccc1O2 [compound 705]
- IC50 ([1]; read-out: BACE1 FRET assay): > 5 µM
- IC50 ([2]; read-out: HEK cell assay): > 5 µM

SMILES: CC(C)CCCOc1nccc2c1[C@]1(COC(N)=N1)c1cc(-c3cccnc3)ccc1O2 [compound 842]
- IC50 [1, 5]: 0.1 to 1 µM
- IC50 [2, 6]: 0.1 to 1 µM

SMILES: COc1ccc(-c2ccc3c(c2)[C@@]2(COC(N)=N2)c2cc(OCC(C)(C)C)ccc2O3)c(OC)n1 [compound 909]
- IC50 [1, 5]: 0.1 to 1 µM
- IC50 [2, 6]: > 5 µM

SMILES: CC(=O)c1ccc(-c2ccc3c(c2)[C@]2(COC(N)=N2)c2cc(-c4cncnc4)ccc2O3)cc1 [compound 888]
- IC50 [1, 5]: < 0.1 µM
- IC50 [2, 6]: < 0.1 µM

SMILES: NC1=N[C@@]2(CO1)c1cc(-c3cccnc3F)ccc1Oc1ccc(C3=CCOCC3)nc12 [compound 400]
- IC50 [1, 3]: < 0.1 µM
- IC50 [2, 4]: < 0.1 µM

SMILES: CC(C)(C)CCc1cnc2c(c1)[C@]1(COC(N)=N1)c1cc(-c3cccnc3)ccc1O2 [compound 922]
- IC50 [1, 5]: < 0.1 µM
- IC50 [2, 6]: < 0.1 µM

SMILES: COc1ccc2c(c1)[C@]1(COC(N)=N1)c1cc(C#CC(C)(C)O)cnc1O2 [compound 903]
- IC50 [1, 5]: > 5 µM
- IC50 [2, 6]: > 5 µM

SMILES: COCC(=O)Nc1ccc2c(c1)[C@@]1(COC(N)=N1)c1cc(OC)ccc1O2 [compound 613]
- IC50 [1, 5]: 0.1 to 1 µM
- IC50 [2, 6]: 0.1 to 1 µM

SMILES: NC1=N[C@]2(CO1)c1cc(C3=CCOCC3)ccc1Oc1cc(F)c(-c3cccnc3)cc12 [compound 492]
- IC50 ([1]; read-out: BACE1 FRET assay): < 0.1 µM
- IC50 [2, 7]: < 0.1 µM

SMILES: CC(C)(C)/C=C/c1cc2c(cn1)Oc1ccc(-c3cccnc3)cc1[C@@]21COC(N)=N1 [compound 397]
- IC50 [1, 3]: < 0.1 µM
- IC50 [2, 4]: < 0.1 µM

SMILES: COC(C)(C)C#Cc1ccc2c(c1)[C@@]1(COC(N)=N1)c1cc(OCC(C)(C)O)ccc1O2 [compound 768]
- IC50 ([1]; read-out: BACE1 FRET assay): 0.1 to 1 µM
- IC50 ([2]; read-out: HEK cell assay): 0.1 to 1 µM

SMILES: CC(C)(C)C#Cc1ccc2c(c1)[C@]1(COC(N)=N1)c1cc(C#CC(C)(C)C)cnc1O2 [compound 898]
- IC50 [1, 5]: 0.1 to 1 µM
- IC50 [2, 6]: > 5 µM

SMILES: NC1=NC2(CO1)c1cnc(Cl)cc1Oc1ccc(-c3cccnc3)cc12 (stereo not shown) [compound 727]
- IC50 ([1]; read-out: BACE1 FRET assay): 1 to 5 µM
- IC50 ([2]; read-out: HEK cell assay): > 5 µM

SMILES: C[C@H]1OC(N)=N[C@@]12c1cc(OCC(C)(C)C)ccc1Oc1ccc(-c3cncnc3)cc12 [126d]
- IC50 [1, 8]: < 0.1 µM
- IC50 [2, 9]: < 0.1 µM

SMILES: NC1=N[C@]2(CO1)c1cc(-c3cccnc3)ccc1Oc1cnc(Cl)cc12 [compound 953]
- IC50 ([1]; read-out: BACE1 FRET assay): 0.1 to 1 µM
- IC50 ([2]; read-out: HEK cell assay): 1 to 5 µM

SMILES: COC(=O)c1ccc2c(c1)[C@@]1(COC(N)=N1)c1cc(OCC(C)(C)C)ccc1O2 [compound 850]
- IC50 [1, 5]: 0.1 to 1 µM
- IC50 [2, 6]: 1 to 5 µM

SMILES: CC(C)(C)COc1ccc2c(c1)[C@]1(COC(N)=N1)c1cc(C3=CCCCC3)ccc1O2 [compound 803]
- IC50 [1, 5]: < 0.1 µM
- IC50 [2, 6]: 1 to 5 µM

SMILES: CC(C)(C)COc1ccc2c(c1)[C@@]1(COC(N)=N1)c1cc(-c3ncccn3)ccc1O2 [compound 186]
- IC50 [1, 8]: < 0.1 µM
- IC50 [2, 9]: < 0.1 µM

SMILES: COc1ccc2c(c1)[C@]1(COC(N)=N1)c1cc(C3=CCOCC3)cc(F)c1O2 [compound 363]
- IC50 [1, 3]: > 5 µM
- IC50 [2, 4]: > 5 µM

SMILES: CC(C)(C)COc1ccc2c(c1)[C@]1(COC(N)=N1)c1cc(C(=O)N3CCCCC3)ccc1O2 [compound 873]
- IC50 [1, 5]: 0.1 to 1 µM
- IC50 [2, 6]: 0.1 to 1 µM

SMILES: CNCc1ccc(-c2ccc3c(c2)[C@]2(COC(N)=N2)c2cc(OCC(C)(C)C)ccc2O3)cc1 [compound 784]
- IC50 ([1]; read-out: BACE1 FRET assay): 0.1 to 1 µM
- IC50 ([2]; read-out: HEK cell assay): 1 to 5 µM

SMILES: CC(=O)COc1ccc2c(c1)[C@]1(COC(N)=N1)c1cc(-c3cccnc3)ccc1O2 [compound 923]
- IC50 [1, 5]: < 0.1 µM
- IC50 [2, 6]: < 0.1 µM

SMILES: CC1(C)CC(=O)N(c2ccc3c(c2)[C@]2(COC(N)=N2)c2cc(-c4cccnc4)ccc2O3)C1 [compound 749]
- IC50 ([1]; read-out: BACE1 FRET assay): < 0.1 µM
- IC50 ([2]; read-out: HEK cell assay): < 0.1 µM

SMILES: NC1=N[C@]2(CO1)c1cc(-c3cccnc3)ccc1Oc1ncc(-c3cccnc3)cc12 [compound 157]
- IC50 [1, 8]: < 0.1 µM
- IC50 [2, 9]: < 0.1 µM

SMILES: CC(C)(C)COc1ccc2c(c1)[C@]1(COC(N)=N1)c1cc(C3CCOCC3)ccc1O2 [compound 747]
- IC50 ([1]; read-out: BACE1 FRET assay): 0.1 to 1 µM
- IC50 ([2]; read-out: HEK cell assay): 1 to 5 µM

SMILES: CC(C)(C)COc1ccc2c(c1)[C@]1(COC(N)=N1)c1cc(-c3ccccc3)ccc1O2 [Example 85, (4S)-2′-(2,2-dimethylpropoxy)-7′-phenylspiro[1,3-oxazole-4,9′-xanthen]-2-amine]
- IC50 [1, 10]: < 0.1 µM
- IC50 [2, 11]: 1 to 5 µM

SMILES: CC1(C)C[C@H](c2cc3c(cn2)Oc2ccc(-c4cccnc4F)cc2[C@@]32COC(N)=N2)CCO1 [compound 432]
- IC50 ([1]; read-out: BACE1 FRET assay): < 0.1 µM
- IC50 [2, 7]: < 0.1 µM

SMILES: CN(C)CC#Cc1ccc2c(c1)[C@@]1(COC(N)=N1)c1cc(OCC(C)(C)C)ccc1O2 [Example 89, (4S)-2′-(3-(dimethylamino)-1-propyn-1-yl)-7′-(2,2-dimethylpropoxy)spiro[1,3-oxazole-4,9′-xanthen]-2-amine]
- IC50 [1, 10]: 0.1 to 1 µM
- IC50 [2, 11]: 0.1 to 1 µM

SMILES: CC1(C)CN(c2cc(F)c3c(c2)[C@]2(COC(N)=N2)c2cc(-c4cccnc4)ccc2O3)CCO1 [compound 484]
- IC50 ([1]; read-out: BACE1 FRET assay): < 0.1 µM
- IC50 [2, 7]: < 0.1 µM

SMILES: NC1=N[C@@]2(CO1)c1cc(Br)ccc1Oc1ccc(/C=C/C(=O)O)cc12 [compound 919]
- IC50 [1, 5]: 1 to 5 µM
- IC50 [2, 6]: > 5 µM

SMILES: CC1(C)C=C(c2cc3c(cc2F)Oc2ccc(-c4cncnc4)cc2[C@@]32COC(N)=N2)CCO1 [compound 502]
- IC50 ([1]; read-out: BACE1 FRET assay): < 0.1 µM
- IC50 [2, 7]: < 0.1 µM

SMILES: Cc1cnc(F)c(-c2ccc3c(c2)[C@@]2(COC(N)=N2)c2cccnc2O3)c1 [compound 571]
- IC50 [1, 5]: 0.1 to 1 µM
- IC50 [2, 6]: 0.1 to 1 µM

SMILES: COC(C)(C)C#Cc1cnc2c(c1)[C@]1(COC(N)=N1)c1cc(-c3cccnc3)ccc1O2 [compound 603]
- IC50 [1, 5]: < 0.1 µM
- IC50 [2, 6]: < 0.1 µM

SMILES: CC(C)(C)C#Cc1ccc2c(c1)[C@@]1(COC(N)=N1)c1cc(C#CC(C)(C)C)cnc1O2 [compound 1000]
- IC50 ([1]; read-out: BACE1 FRET assay): < 0.1 µM
- IC50 ([2]; read-out: HEK cell assay): 0.1 to 1 µM

SMILES: NC1=N[C@@]2(CO1)c1cc(-c3cccnc3)ccc1Oc1cnc(N)cc12 [compound 446]
- IC50 ([1]; read-out: BACE1 FRET assay): 0.1 to 1 µM
- IC50 [2, 7]: 0.1 to 1 µM

SMILES: Cn1cc(-c2cccc(-c3ccc4c(c3)[C@@]3(COC(N)=N3)c3cc(-c5cnn(C)c5)ncc3O4)c2)cn1 [compound 328]
- IC50 [1, 3]: < 0.1 µM
- IC50 [2, 4]: 0.1 to 1 µM

SMILES: NC1=NC2(CO1)c1cc(-c3cccnc3)ccc1Oc1ncc(-c3cccnc3)cc12 (stereo not shown) [Example 113, 3,7-di-3-pyridinylspiro[chromeno[2,3-b]pyridine-5,4′-[1,3]oxazol]-2′-amine]
- IC50 [1, 8]: < 0.1 µM
- IC50 [2, 9]: < 0.1 µM

SMILES: CC(C)(C)CCOc1nccc2c1[C@]1(COC(N)=N1)c1cc(-c3cccnc3)ccc1O2 [compound 932]
- IC50 ([1]; read-out: BACE1 FRET assay): 0.1 to 1 µM
- IC50 ([2]; read-out: HEK cell assay): 0.1 to 1 µM

SMILES: CC(C)(C)COc1ccc2c(c1)[C@]1(COC(N)=N1)c1cc(-c3cnc(Cl)nc3)ccc1O2 [compound 881]
- IC50 [1, 5]: < 0.1 µM
- IC50 [2, 6]: 0.1 to 1 µM

SMILES: NC1=N[C@]2(CO1)c1cc(C3=CCOCC3)ccc1Oc1cnc(-c3ccccc3F)cc12 [compound 498]
- IC50 ([1]; read-out: BACE1 FRET assay): < 0.1 µM
- IC50 [2, 7]: 0.1 to 1 µM

SMILES: NC1=NC2(CO1)c1cc(-c3cccnc3)ccc1Oc1ccc(-c3cccnc3)cc12 [Example 123, 2′,7′-di(pyridin-3-yl)-5H-spiro[oxazole-4,9′-xanthen]-2-amine]
- IC50 [1, 8]: < 0.1 µM
- IC50 [2, 9]: < 0.1 µM

SMILES: NC1=NC2(CO1)c1cc(-c3cncnc3)ccc1Oc1ccc(-c3cncnc3)cc12 [compound 137]
- IC50 [1, 8]: < 0.1 µM
- IC50 [2, 9]: 0.1 to 1 µM

SMILES: NC1=N[C@@]2(CO1)c1cc(-c3cccnc3)ccc1Oc1cnc(C3=CCCCC3)cc12 [compound 789]
- IC50 ([1]; read-out: BACE1 FRET assay): < 0.1 µM
- IC50 ([2]; read-out: HEK cell assay): < 0.1 µM

SMILES: CC(C)(C)C#Cc1ccc2c(c1)[C@]1(COC(N)=N1)c1nc(-c3cccnc3)ccc1O2 [compound 697]
- IC50 ([1]; read-out: BACE1 FRET assay): 0.1 to 1 µM
- IC50 ([2]; read-out: HEK cell assay): 1 to 5 µM
